According to patent US8410049B2, “Methods and kits for preventing hypoglycemia” (Cebix, priority 2009, dated 2013):

Columns and labels:
[1] = system: C-peptide antibodies; experiment: Antibody formation against C-peptide, ELISA; assay type: in vivo, human; details: baseline and after 3 and 6 months of C-peptide treatment
Source text: C-peptide plasma samples, C-peptide antibodies, and markers for atherosclerosis were processed (centrifuged, etc.) and stored frozen until transport to a central lab. HLA typing samples were shipped to a central lab for processing and storage until analysis. All samples there were labelled uniquely, including information about screening number and sample time.
Samples for the assessment of antibody formation were collected at baseline and at visits 2 and 4. An appropriate enzyme-linked immunoabsorbant assay (ELISA) method was developed and assessments carried out.

[2] = system: type 1 diabetes patients with peripheral neuropathy; experiment: ECG and vital signs; assay type: in vivo, human; details: for BPd (diastolic blood pressure), change from baseline to 6 months treatment (visit 4), Mean ± SD / BPd (diastolic blood pressure), change from baseline to 6 months treatment (visit 4), Median / BPs (systolic blood pressure), change from baseline to 6 months treatment (visit 4), Mean ± SD / BPs (systolic blood pressure), change from baseline to 6 months treatment (visit 4), Median / Heart rate, change from baseline to 6 months treatment (visit 4), Mean ± SD / Heart rate, change from baseline to 6 months treatment (visit 4), Median / QTc-interval Bazett, change from baseline to 6 months treatment (visit 4), Mean ± SD / QTc-interval Bazett, change from baseline to 6 months treatment (visit 4), Median / QTc-interval Fredericia, change from baseline to 6 months treatment (visit 4), Mean ± SD / QTc-interval Fredericia, change from baseline to 6 months treatment (visit 4), Median: PP data set
Protocol: At the final clinical visit (at 6 months from S/B visit), a safety assessment including physical examination, ECG, vital signs, body weight, and sampling for clinical safety laboratory tests were performed. Furthermore, the metabolic control (HbA1c) was assessed, as well as C-peptide antibodies and C-peptide levels in plasma. All efficacy variables including SCV, SNAP, MCV, MDL, CMAP, QST were performed (two examinations within 2-14 days). E/I ratio and neurological status were also assessed. All used and unused clinical trial medication was returned by the patient and drug accountability was performed by study staff. The patient diary was reviewed including recording of concomitant medication, AEs, and drug accountability. FIG. 1 summarizes the study procedures and assessments conducted at each time point.

[3] = system: type 1 diabetes patients with peripheral neuropathy; experiment: Clinical laboratory evaluation: hematology, clinical chemistries, urinalysis; assay type: in vivo, human; details: following the study treatment
Source text: Before starting the study, the investigator supplied the Sponsor with a list of the normal laboratory ranges and units of measurement for the laboratory variables to be determined during the study at the site. All abnormal laboratory (those out of the normal range) values required comments on the CRF, regardless of the clinical significance: • Error—Include improper sample preparation, hemolysis, delayed transit to laboratory, etc. • Not relevant—Abnormality that was not alarming. • Patient condition—Abnormality that was a consequence of the patient's disease, age, etc. • Adverse event—Clinically relevant abnormal value that cannot be explained by the above assessment flags. Adverse Event/Serious Adverse Event CRF was filled in.
Descriptive statistics were used for safety variables.

[4] = subcutaneously administered; cited from earlier work
[5] = system: type 1 diabetes patients with peripheral neuropathy; experiment: Adverse events incl. severe hypoglycemic events and hypoglycemic coma; details: for AEs of any severity: Tooth ache: Gastrointestinal Disorders
[6] = Low-dose, ITT data set, Infections and infestations
[7] = Low-dose, PP data set, Infections and infestations
[8] = Low-dose, PP data set, Injury poisoning, procedural complications
[9] = Low-dose, PP data set, Investigations

For `CC(C)C[C@H](NC(=O)[C@H](C)NC(=O)[C@H](CC(C)C)NC(=O)[C@@H]1CCCN1C(=O)[C@H](CCC(N)=O)NC(=O)[C@H](CC(C)C)NC(=O)[C@H](CO)NC(=O)CNC(=O)[C@H](C)NC(=O)CNC(=O)[C@@H]1CCCN1C(=O)CNC(=O)CNC(=O)CNC(=O)[C@H](CC(C)C)NC(=O)[C@H](CCC(=O)O)NC(=O)[C@@H](NC(=O)[C@H](CCC(N)=O)NC(=O)CNC(=O)[C@@H](NC(=O)[C@H](CCC(N)=O)NC(=O)[C@H](CC(C)C)NC(=O)[C@H](CC(=O)O)NC(=O)[C@H](CCC(=O)O)NC(=O)[C@H](C)NC(=O)[C@@H](N)CCC(=O)O)C(C)C)C(C)C)C(=O)N[C@@H](CCC(=O)O)C(=O)NCC(=O)N[C@@H](CO)C(=O)N[C@@H](CC(C)C)C(=O)N[C@@H](CCC(N)=O)C(=O)O` [C-peptide, Recombinant human C-peptide], the “Antibody reactivity to C-peptide” value [1] was “no or very weak reactivity”, the “BPd (diastolic blood pressure), change from baseline to 6 months treatment (visit 4), Mean ± SD” value ([2]; High-dose C-peptide, n = 39) was −2.6 ± 8.0 mm Hg and the “BPd (diastolic blood pressure), change from baseline to 6 months treatment (visit 4), Median” value ([2]; High-dose C-peptide, n = 39) was −1.0 mm Hg. The “BPs (systolic blood pressure), change from baseline to 6 months treatment (visit 4), Mean ± SD” value ([2]; High-dose C-peptide, n = 39) was −8.8 ± 10.0 mm Hg, the “BPs (systolic blood pressure), change from baseline to 6 months treatment (visit 4), Median” value ([2]; High-dose C-peptide, n = 39) was −8.0 mm Hg and the “Heart rate, change from baseline to 6 months treatment (visit 4), Mean ± SD” value ([2]; High-dose C-peptide, n = 39) was −3.2 ± 10.0 bpm. For the same compound, the “Heart rate, change from baseline to 6 months treatment (visit 4), Median” value ([2]; High-dose C-peptide, n = 39) was −4.0 bpm, the “QTc-interval Bazett, change from baseline to 6 months treatment (visit 4), Mean ± SD” value ([2]; High-dose C-peptide, n = 39) was -4.5 ± 20.3 ms and the “QTc-interval Bazett, change from baseline to 6 months treatment (visit 4), Median” value ([2]; High-dose C-peptide, n = 39) was 0.0 ms. The “QTc-interval Fredericia, change from baseline to 6 months treatment (visit 4), Mean ± SD” value ([2]; High-dose C-peptide, n = 39) was -0.5 ± 16.2 ms, the “QTc-interval Fredericia, change from baseline to 6 months treatment (visit 4), Median” value ([2]; High-dose C-peptide, n = 39) was 0.0 ms and the “Decrease in systolic blood pressure compared to the low-dose C-peptide group” value ([2]; High-dose C-peptide, p<0.004, not different from placebo) was “significantly greater decrease”. The “BPd (diastolic blood pressure), change from baseline to 6 months treatment (visit 4), Mean ± SD” value ([2]; Low-dose C-peptide, n = 53) was −2.7 ± 8.2 mm Hg, the “BPd (diastolic blood pressure), change from baseline to 6 months treatment (visit 4), Median” value ([2]; Low-dose C-peptide, n = 53) was −1.0 mm Hg and the “BPs (systolic blood pressure), change from baseline to 6 months treatment (visit 4), Mean ± SD” value ([2]; Low-dose C-peptide, n = 53) was −2.1 ± 12.8 mm Hg. For the same compound, the “BPs (systolic blood pressure), change from baseline to 6 months treatment (visit 4), Median” value ([2]; Low-dose C-peptide, n = 53) was −1.0 mm Hg, the “Heart rate, change from baseline to 6 months treatment (visit 4), Mean ± SD” value ([2]; Low-dose C-peptide, n = 53) was −0.9 ± 8.2 bpm and the “Heart rate, change from baseline to 6 months treatment (visit 4), Median” value ([2]; Low-dose C-peptide, n = 53) was −2.0 bpm. The “QTc-interval Bazett, change from baseline to 6 months treatment (visit 4), Mean ± SD” value ([2]; Low-dose C-peptide, n = 53) was -0.1 ± 17.5 ms, the “QTc-interval Bazett, change from baseline to 6 months treatment (visit 4), Median” value ([2]; Low-dose C-peptide, n = 53) was 0.0 ms and the “QTc-interval Fredericia, change from baseline to 6 months treatment (visit 4), Mean ± SD” value ([2]; Low-dose C-peptide, n = 53) was 0.9 ± 14.1 ms. For the same compound, the “QTc-interval Fredericia, change from baseline to 6 months treatment (visit 4), Median” value ([2]; Low-dose C-peptide, n = 53) was 1.3 ms, the “Changes in heart rate, blood pressure, and QTc” value ([2]; any of the three treatment groups, 6 months) was “nor were there any significant changes” and the “Abnormalities in ECG” value ([2]; during study medication treatment) was “no clinically significant abnormalities”. For the same compound, the “Changes in clinical laboratory variables” value [3] was “no significant changes in any of the variables”, the Bioavailability [4] was “approximately 80%” and the “AEs of severe intensity (S): Sepsis” value ([5]; High-dose, ITT data set, Infections and infestations) was “S (1)”. The “AEs of any severity: Tooth ache” value ([5]; High-dose, PP data set) was 3, the “AEs of any severity: Urinary tract infection” value ([5]; High-dose, PP data set, Infections and infestations) was 1 and the “AEs of any severity: Skin infection” value ([5]; High-dose, PP data set, Skin and subcutaneous tissue disorders) was 2. The “AEs of moderate intensity (M): Acute HIV infection” value [5, 6] was “M (1)”, the “AEs of moderate intensity (M): Borrelia infection” value [5, 6] was “M (1)” and the “AEs of moderate intensity (M): Herpes zoster” value [5, 6] was “M (1)”. The “AEs of moderate intensity (M): Skin infection” value ([5]; Low-dose, ITT data set, Skin and subcutaneous tissue disorders) was “M (1)”, the “AEs of any severity: Tooth ache” value ([5]; Low-dose, PP data set) was 2 and the “AEs of any severity: Acute HIV infection” value [5, 7] was 1. For the same compound, the “AEs of any severity: Borrelia infection” value [5, 7] was 1, the “AEs of any severity: Herpes simplex” value [5, 7] was 1 and the “AEs of any severity: Herpeszoster” value [5, 7] was 1. For the same compound, the “AEs of any severity: Influenza” value [5, 7] was 1, the “AEs of any severity: Nasopharyngitis” value [5, 7] was 31 and the “AEs of any severity: Otitis” value [5, 7] was 1. For the same compound, the “AEs of any severity: Pharyngitis” value [5, 7] was 1, the “AEs of any severity: Sinusitis” value [5, 7] was 4 and the “AEs of any severity: Skin infection” value [5, 7] was 5. The “AEs of any severity: Tonsilitis” value [5, 7] was 1, the “AEs of any severity: Upper respiratory tract infection” value [5, 7] was 3 and the “AEs of any severity: Urinary tract infection” value [5, 7] was 3. The “AEs of any severity: Joint sprain ankle” value [5, 8] was 1, the “AEs of any severity: Rib fracture/injury” value [5, 8] was 1 and the “AEs of any severity: Skin injury” value [5, 8] was 2. For the same compound, the “AEs of any severity: Elevated serum creatinine” value [5, 9] was 1, the “AEs of any severity: Hepatic enzyme increase” value [5, 9] was 2 and the “AEs of any severity: Hyperkalaemia” value [5, 9] was 1. The “AEs of any severity: Weight increased” value [5, 9] was 1 and the Deaths ([5]; during the study) was “No deaths”.
